In paper PMC11203437, “Subtle Structural Differences Affect the Inhibitory Potency of RGD-Containing Cyclic Peptide Inhibitors Targeting SPSB Proteins” (International Journal of Molecular Sciences, 2024):
Peptide text beside a SMILES is read from it.

B1: cR7, cyclo(RGDINNN) (peptide)
peptide: RGDINNN
modifications: head-to-tail amide-cyclized
notes: Cyclic: the last residue is amide-bonded to the first; source: synthetic peptide (GL Biochem Ltd.)
B2: cR9, cyclo(RGDINNNVE) (peptide)
peptide: RGDINNNVE
modifications: head-to-tail amide-cyclized
notes: designed cyclic peptide: RGD motif joined to the iNOS-derived stretch DINNNVE; Cyclic: the last residue is amide-bonded to the first; source: synthetic peptide (GL Biochem Ltd.)

Tests used:
[1] = biological target: T1, SPSB2 (His6-tagged SPRY domain of human SPSB2, residues 22-220) (Homo sapiens, UniProt Q99619); experiment: isothermal titration calorimetry (ITC), binding to SPSB2; conditions: ITC Kd compared with cR8 Kd reported previously [19]
T1 construct: His6; made in house
T1 sequence (Q99619 22-220): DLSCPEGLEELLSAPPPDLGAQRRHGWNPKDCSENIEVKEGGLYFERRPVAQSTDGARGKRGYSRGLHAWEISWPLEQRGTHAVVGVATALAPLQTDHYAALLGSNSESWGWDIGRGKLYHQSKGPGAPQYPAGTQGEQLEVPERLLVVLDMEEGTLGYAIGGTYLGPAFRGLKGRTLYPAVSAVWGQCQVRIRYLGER
Protocol: (§1) The preparation of the recombinant His6-tagged SPRY domain of human SPSB2 (UniProtKB accession number Q99619, residues 22-220) has been previously described. Briefly, SPSB2 protein was initially purified using a Ni-NTA column and the amount of the protein was measured using the Bradford method. Either cR7 or cR9, at 1.5-fold molar excess, was then added to the protein and the SPSB2-cR7 and SPSB2-cR9 complexes were purified by gel filtration using a HiLoad 16/600 Superdex 75 column (GE Healthcare, Marlborough, MA, USA) equilibrated against a buffer containing 50 mM Tris-HCl pH 7.5, 150 mM NaCl, 5 mM DTT. To generate the GST-fusion proteins used in the cell lysate inhibition assay, the SPRY domains of human TRIM25 (UniProtKB Q14258, residues 433-630), SPSB2, SPSB1 (UniProtKB Q96BD6, residues 28-232), and SPSB4 (UniProtKB Q96A44, residues 28-232) were inserted into the pGEX-4T-2 vector (GE Healthcare, Marlborough, MA, USA). Protein expression was induced in an LB medium supplemented with 0.1 mM isopropyl β-D-1-thiogalactopyranoside (IPTG) at 18 °C overnight. […]
All ITC measurements were performed at 25 °C using iTC200 (Malvern Panalytical, Malvern, UK). […] The dissociation constant (Kd) was calculated, with the error from the Origin-calculated association constant (K) transferred as the same fraction of the primary value.

[2] = tested on: SPSB4-iNOS interaction (GST-tagged SPRY domain of SPSB4; full-length iNOS from RAW 264.7 lysate); experiment: cell lysate inhibition assay, SPSB4-iNOS interaction (GST pull-down, Western blot); type: biochemical, human (SPSB4); conditions: for displacement of full-length iNOS from SPSB4: 10 μM peptide, LPS/IFN-γ-stimulated RAW 264.7 lysate, 2 h, GST pull-down, anti-iNOS Western blot
Protocol: (§2) Figure 6 Inhibition of SPSB-iNOS interactions by cR7, cR8, and cR9. Cell lysates from lipopolysaccharide/interferon-γ-stimulated RAW 264.7 cells were incubated with the GST-tagged SPRY domains of (A) SPSB2, (B) SPSB1, and (C) SPSB4 in the absence or presence of cR7, cR8, and cR9. GST-tagged SPRY domain of TRIM25 was used as a negative control. A 9-mer linear peptide (hK9) derived from the iNOS N-terminal region was included as a control. After interaction for 2 h, GST-fusion proteins were recovered via affinity purification using glutathione-sepharose 4B beads. Interaction with full-length iNOS was analyzed by Western blotting with anti-iNOS antibody (upper panels) and equivalent protein input was confirmed by reprobing the membranes with anti-GST antibody (lower panels).
as §1, with “overnight. Cells were harvested and resuspended in PBS, and then lysed using a cell disruptor (JNBIO, Guangzhou, China). Soluble GST-tagged proteins were purified using a glutathione sepharose 4B column prepared with PBS.” for “overnight.”

[3] = tested on: SPSB1-iNOS interaction (GST-tagged SPRY domain of SPSB1; full-length iNOS from RAW 264.7 lysate); experiment: cell lysate inhibition assay, SPSB1-iNOS interaction (GST pull-down, Western blot); type: biochemical, human (SPSB1); conditions: for inhibition of SPSB1-iNOS interaction: 1 μM peptide, LPS/IFN-γ-stimulated RAW 264.7 lysate, 2 h, GST pull-down, anti-iNOS Western blot
Protocol: as §2
as §1, with “overnight. Cells were harvested and resuspended in PBS, and then lysed using a cell disruptor (JNBIO, Guangzhou, China). Soluble GST-tagged proteins were purified using a glutathione sepharose 4B column prepared with PBS.” for “overnight.”

[4] = tested on: SPSB2-iNOS interaction (GST-tagged SPRY domain of SPSB2; full-length iNOS from RAW 264.7 lysate); experiment: cell lysate inhibition assay, SPSB2-iNOS interaction (GST pull-down, Western blot); type: biochemical, human (SPSB2); conditions: for displacement of full-length iNOS from SPSB2: 10 μM peptide, LPS/IFN-γ-stimulated RAW 264.7 lysate, 2 h, pH 7.5 lysis buffer, GST pull-down, anti-iNOS Western blot
Protocol: as §2
as §1, with “overnight. Cells were harvested and resuspended in PBS, and then lysed using a cell disruptor (JNBIO, Guangzhou, China). Soluble GST-tagged proteins were purified using a glutathione sepharose 4B column prepared with PBS.” for “overnight.”

[5] = biological target: T2, His6-tagged SPRY domain of human SPSB2 (residues 22-220) (human, UniProt Q99619 22-220); experiment: ITC; 100 μM cR7 or cR9 titrated into 10 μM SPSB2; 25 °C; 50 mM Tris-HCl pH 7.5, 150 mM NaCl, 5 mM DTT; single binding site model; conditions: both partners purified
T2 construct: SPRY domain of human SPSB2, UniProtKB Q99619, residues 22-220; also called SPRY domain-containing SOCS box protein 2; source: recombinant, purified (Ni-NTA; complexes with peptide by gel filtration on Superdex 75); preparation previously described [26]
T2 sequence (looked up): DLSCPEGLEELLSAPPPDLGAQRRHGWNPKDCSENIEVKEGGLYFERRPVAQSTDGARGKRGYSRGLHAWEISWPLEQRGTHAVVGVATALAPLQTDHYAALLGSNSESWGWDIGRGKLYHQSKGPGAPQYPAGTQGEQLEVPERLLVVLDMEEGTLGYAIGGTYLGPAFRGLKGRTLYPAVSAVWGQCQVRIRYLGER

[6] = biological target: T3, GST-tagged SPRY domain of human SPSB4 (residues 28-232) (human, UniProt Q96A44 28-232); experiment: pull-down; competition: 1 μM or 10 μM cyclic peptide added to the RAW 264.7 lysate with 2 μg/mL GST-tagged SPRY domain for 2 h; iNOS recovered on glutathione sepharose 4B read by Western blot; conditions: both partners purified
T3 construct: SPRY domain of human SPSB4, UniProtKB Q96A44, residues 28-232; Cloned into pGEX-4T-2; source: recombinant, induced with IPTG in LB medium, purified (glutathione sepharose 4B)
T3 sequence (looked up): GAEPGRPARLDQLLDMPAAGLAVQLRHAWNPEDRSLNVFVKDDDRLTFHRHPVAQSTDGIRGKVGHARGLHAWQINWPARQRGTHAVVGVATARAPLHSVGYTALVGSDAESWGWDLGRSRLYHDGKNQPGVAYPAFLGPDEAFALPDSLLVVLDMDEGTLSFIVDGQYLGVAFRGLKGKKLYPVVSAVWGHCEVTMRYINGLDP

[7] = biological target: T4, GST-tagged SPRY domain of human SPSB1 (residues 28-232) (human, UniProt Q96BD6 28-232); experiment: as above; conditions: both partners purified
T4 construct: SPRY domain of human SPSB1, UniProtKB Q96BD6, residues 28-232; Cloned into pGEX-4T-2; also called SPSP1; source: recombinant, induced with IPTG in LB medium, purified (glutathione sepharose 4B)
T4 sequence (looked up): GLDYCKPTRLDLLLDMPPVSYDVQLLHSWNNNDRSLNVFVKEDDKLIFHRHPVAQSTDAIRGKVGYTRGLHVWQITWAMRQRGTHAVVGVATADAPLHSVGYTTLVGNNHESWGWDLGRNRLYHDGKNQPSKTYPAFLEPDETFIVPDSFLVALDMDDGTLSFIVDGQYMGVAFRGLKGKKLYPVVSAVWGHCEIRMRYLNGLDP

[8] = overall comparison of cR7, cR8 and cR9, 1 or 10 μM, Western blot

| Molecule | SPSB2-binding affinity, fold higher than cR8 [1] | displacement of full-length iNOS from SPSB4 [2] | overall inhibition of SPSB4-iNOS interaction, relative [2, 8] | inhibition of SPSB1-iNOS interaction [3] | overall inhibition of SPSB1-iNOS interaction, relative [3, 8] | displacement of full-length iNOS from SPSB2 [4] | overall inhibition of SPSB2-iNOS interaction, relative [4, 8] | Kd [5] [nM] | stoichiometry N [5] | binding result [6] | binding result [7] |
| --- | --- | --- | --- | --- | --- | --- | --- | --- | --- | --- | --- |
| CC[C@H](C)[C@@H]1NC(=O)[C@H](CC(=O)O)NC(=O)CNC(=O)[C@H](CCCNC(=N)N)NC(=O)[C@H](CC(N)=O)NC(=O)[C@H](CC(N)=O)NC(=O)[C@H](CC(N)=O)NC1=O [cR7, cyclo(RGDINNN)] (cyclo(RGDINNN)) | ~ 6.5 fold | able to displace full-length iNOS binding to SPSB4 | stronger inhibition | can effectively inhibit SPSB1-iNOS interaction | stronger inhibition | able to displace full-length iNOS binding to SPSB2 | stronger inhibition | – | – | – | – |
| CC[C@H](C)[C@@H]1NC(=O)[C@H](CC(=O)O)NC(=O)CNC(=O)[C@H](CCCNC(=N)N)NC(=O)[C@H](CCC(=O)O)NC(=O)[C@H](C(C)C)NC(=O)[C@H](CC(N)=O)NC(=O)[C@H](CC(N)=O)NC(=O)[C@H](CC(N)=O)NC1=O [cR9, cyclo(RGDINNNVE)] (cyclo(RGDINNNVE)) | ~ 2 fold | able to displace full-length iNOS binding to SPSB4 | – | can effectively inhibit SPSB1-iNOS interaction | – | able to displace full-length iNOS binding to SPSB2 | – | – | – | – | – |
| B1 | – | – | – | – | – | – | – | 103 | 1 | binds | binds |
| B2 | – | – | – | – | – | – | – | 308 | – | binds | binds |
